Assay results taken from US20250129091A1, “THIENOPYRROLOTRIAZINE COMPOUNDS, THEIR PREPARATION AND THEIR THERAPEUTIC USE” (Sanofi, priority 2022, published 2025).

Test system: NLRP3 inflammasome
Experiment: IL-1β secretion assay (LPS-primed, nigericin-activated THP-1 cells, MSD readout)
Format: cell-based
Settings: Homo sapiens, THP-1, LPS-primed, read-out: IL1b IC50
Protocol: Monocytic THP-1 cells (DSMZ) were maintained in RPMI media (RPMI 1640 Medium (1×) +10% FBS, Eurobio CVFSVFOO—OU). Cells were then plated at 16,000 cells per well in 96-well round bottom cell culture plates (TPP, ref 92097) and maintained with RPMI and 0.1% Bovine Serum Albumin solution. Activation of the NLRP3 inflammasome requires both an NF-kB-dependent priming step and the addition of a NLRP3 activator. The priming step was induced by LPS (10 ng/mL, Sigma, ref:L4391) for 3 h at 37° C., then compound, in a 1:3.10 serial dilution series in DMSO 1:100, and the activator nigericin (Sigma Aldrich, ref: SML1779) 10 μM (final concentration) were added to the cells and co-incubated for 2 h. 50 μL supernatant was removed, and IL-1β levels were monitored using an MSD assay (Electro Chemical Luminescence Immunoassay (ECLI) according to manufacturers' instructions.
IC50 values were calculated from the plot of percentage of inhibition versus the inhibitor concentration by a logistics fit according to: y=A2+(A1−A2)/(1+(x/IC50)^p) where y is the %-inhibition at the inhibitor concentration, x. A1 is the lowest inhibition value, i.e., 0%, and A2 the maximum inhibition value, i.e., 100%. The exponent, p, is the Hill coefficient. The curve fitting was conducted with an internally developed software.

SMILES | IC50 [nM]
CC(C)(O)c1nn(CC(=O)N[C@@H]2CCCN(C3CC3)C2)c(=O)c2cc3ccsc3n12 [Example 52, (R)—N-(1-cyclopropylpiperidin-3-yl)-2-(8-(2-hydroxypropan-2-yl)-5-oxothieno[3′,2′:4,5]pyrrolo[1,2-d][1,2,4]triazin-6(5H)-yl)acetamide] | 82
CC(C)c1nn(CC(=O)Nc2ccnn2C)c(=O)c2cc3ccsc3n12 [Example 53, 2-(12-isopropyl-9-oxo-3-thia-1,10,11-triazatricyclo[6.4.0.02,6]dodeca-2(6),4,7,11-tetraen-10-yl)-N-(2-methylpyrazol-3-yl)acetamide] | 1070
CC(C)c1nn(CC(=O)NCC2CC(=O)N(C(C)(C)C)C2)c(=O)c2cc3ccsc3n12 (stereo not shown) [Example 55, N-[(1-tert-butyl-5-oxo-pyrrolidin-3-yl)methyl]-2-(12-isopropyl-9-oxo-3-thia-1,10,11-triazatricyclo[6.4.0.02,6]dodeca-2(6),4,7,11-tetraen-10-yl)acetamide] | 3230
CC(C)c1nn(CC(=O)Nc2cccnc2)c(=O)c2cc3ccsc3n12 [Example 56, 2-(12-isopropyl-9-oxo-3-thia-1,10,11-triazatricyclo[6.4.0.02,6]dodeca-2(6),4,7,11-tetraen-10-yl)-N-(3-pyridyl)acetamide] | 1470
CCc1nn(CC(=O)N[C@@H]2CCCN(C3CC3)C2)c(=O)c2cc3ccsc3n12 [Example 60, N-[(3R)-1-cyclopropyl-3-piperidyl]-2-(12-ethyl-9-oxo-3-thia-1,10,11-triazatricyclo [6.4.0.02,6]dodeca-2(6),4,7,11-tetraen-10-yl)acetamide] | 130
CC(C)c1nn(CC(=O)N[C@@H]2CCCCN(C3CC3)C2)c(=O)c2cc3ccsc3n12 [Example 61, N-[(3R)-1-cyclopropylazepan-3-yl]-2-(12-isopropyl-9-oxo-3-thia-1,10,11-triazatricyclo [6.4.0.02,6]dodeca-2(6),4,7,11-tetraen-10-yl)acetamide] | 159
CC(C)c1nn(CC(=O)NC2CN(C3CC3)CC(F)(F)C2)c(=O)c2cc3ccsc3n12 (stereo not shown) [Example 63, N-(1-cyclopropyl-5,5-difluoropiperidin-3-yl)-2-(8-isopropyl-5-oxothieno[3′,2′:4,5]pyrrolo [1,2-d][1,2,4]triazin-6(5H)-yl)acetamide 2,2,2-trifluoroacetate] | 1660
COCC(C)N1CCC[C@@H](NC(=O)Cn2nc(C(C)C)n3c(cc4ccsc43)c2=O)C1 (stereo partly drawn) [Example 64, 2-(8-isopropyl-5-oxothieno[3′,2′:4,5]pyrrolo[1,2-d][1,2,4]triazin-6(5H)-yl)-N-((3R)-1-(1-methoxypropan-2-yl)piperidin-3-yl)acetamide] | 109
COc1cc(NC(=O)Cn2nc(C(C)C)n3c(cc4ccsc43)c2=O)ccn1 [Example 65, 2-(8-isopropyl-5-oxothieno[3′,2′:4,5]pyrrolo[1,2-d][1,2,4]triazin-6(5H)-yl)-N-(2-methoxypyridin-4-yl)acetamide] | 3800
Cc1ccc(NC(=O)Cn2nc(C(C)C)n3c(cc4ccsc43)c2=O)cn1 [Example 68, 2-(12-isopropyl-9-oxo-3-thia-1,10,11-triazatricyclo[6.4.0.02,6]dodeca-2(6),4,7,11-tetraen-10-yl)-N-(6-methyl-3-pyridyl)acetamide] | 2280
CCc1nn(CC(=O)N[C@@H]2CCCN(C[C@H](C)O)C2)c(=O)c2cc3ccsc3n12 [Example 69, 2-(12-ethyl-9-oxo-3-thia-1,10,11-triazatricyclo[6.4.0.02,6]dodeca-2(6),4,7,11-tetraen-10-yl)-N-[(3R)-1-[(2S)-2-hydroxypropyl]-3-piperidyl]acetamide] | 3430
CC(C)c1nn(CC(=O)N[C@@H]2CCCN(C3(C)CCCC3)C2)c(=O)c2cc3ccsc3n12 [Example 71, 2-(12-isopropyl-9-oxo-3-thia-1,10,11-triazatricyclo[6.4.0.02,6]dodeca-2(6),4,7,11-tetraen-10-yl)-N-[(3R)-1-(1-methylcyclopentyl)-3-piperidyl]acetamide] | 70
CCCc1nn(CC(=O)N[C@@H]2CCCN(C3CC3)C2)c(=O)c2cc3ccsc3n12 [Example 72, N-[(3R)-1-cyclopropylpiperidin-3-yl]-2-(9-oxo-12-propyl-3-thia-1,10,11-triazatricyclo [6.4.0.02,6]dodeca-2(6),4,7,11-tetraen-10-yl)acetamide] | > 10000
CCc1nn(CC(=O)N[C@@H]2CCCN(C)C2)c(=O)c2cc3ccsc3n12 [Example 73, 2-(12-ethyl-9-oxo-3-thia-1,10,11-triazatricyclo[6.4.0.02,6]dodeca-2(6),4,7,11-tetraen-10-yl)-N-[(3R)-1-methyl-3-piperidyl]acetamide] | > 10000
CC(=O)NCC12CC(NC(=O)Cn3nc(C(C)C)n4c(cc5ccsc54)c3=O)(C1)C2 [Example 74, N-[3-(acetamidomethyl)bicyclo[1.1.1]pentan-1-yl]-2-(8-isopropyl-5-oxothieno[3′,2′:4,5]pyrrolo[1,2-d][1,2,4]triazin-6(5H)-yl)acetamide] | 344
CC(C)c1nn(CC(=O)N[C@@H]2CCCN(CC#N)C2)c(=O)c2cc3ccsc3n12 [Example 75, N-[(3R)-1-(cyanomethyl)piperidin-3-yl]-2-(8-isopropyl-5-oxothieno[3′,2′:4,5]pyrrolo[1,2-d][1,2,4]triazin-6(5H)-yl)acetamide] | 157
CC(C)c1nn(CC(=O)N[C@@H]2CCN(C)C2)c(=O)c2cc3ccsc3n12 [Example 76, N-[(3R)-1-methylpyrrolidin-3-yl]-2-(8-isopropyl-5-oxothieno[3′,2′:4,5]pyrrolo[1,2-d][1,2,4]triazin-6(5H)-yl)acetamide] | 978
CC(C)c1nn(CC(=O)N[C@@H]2CCCN(C(C)(C)CO)C2)c(=O)c2cc3ccsc3n12 [Example 79, N-[(3R)-1-(1-hydroxy-2-methylpropan-2-yl)piperidin-3-yl]-2-(8-isopropyl-5-oxothieno [3′,2′:4,5]pyrrolo[1,2-d][1,2,4]triazin-6(5H)-yl)acetamide] | 29
CC(C)c1nn(CC(=O)NC2CC3(C2)CN(C)C3)c(=O)c2cc3ccsc3n12 [Example 83, N-(2-methyl-2-azaspiro[3.3]heptan-6-yl)-2-(8-isopropyl-5-oxothieno[3′,2′:4,5]pyrrolo[1,2-d][1,2,4]triazin-6(5H)-yl)acetamide] | 1880

The remaining compounds from weak to strong by IC50, led by results:

IC50 [nM] | SMILES
2070 | CC(C)c1nn(CC(=O)Nc2ccncn2)c(=O)c2cc3ccsc3n12 [Example 66, 2-(12-isopropyl-9-oxo-3-thia-1,10,11-triazatricyclo[6.4.0.02,6]dodeca-2(6),4,7,11-tetraen-10-yl)-N-pyrimidin-4-yl-acetamide]
1710 | CC(C)c1nn(CC(=O)Nc2ccn(C)n2)c(=O)c2cc3ccsc3n12 [Example 54, 2-(12-isopropyl-9-oxo-3-thia-1,10,11-triazatricyclo[6.4.0.02,6]dodeca-2(6),4,7,11-tetraen-10-yl)-N-(1-methylpyrazol-3-yl)acetamide]
850 | CC(C)c1nn(CC(=O)N[C@@H]2CCCCN(C)C2)c(=O)c2cc3ccsc3n12 [Example 62, 2-(12-isopropyl-9-oxo-3-thia-1,10,11-triazatricyclo[6.4.0.02,6]dodeca-2(6),4,7,11-tetraen-10-yl)-N-[(3R)-1-methylazepan-3-yl]acetamide]
657 | CC(C)c1nn(CC(=O)Nc2ccccn2)c(=O)c2cc3ccsc3n12 [Example 58, 2-(12-isopropyl-9-oxo-3-thia-1,10,11-triazatricyclo[6.4.0.02,6]dodeca-2(6),4,7,11-tetraen-10-yl)-N-(2-pyridyl)acetamide]
446 | CC(C)c1nn(CC(=O)Nc2ccncc2)c(=O)c2cc3ccsc3n12 [Example 67, 2-(12-isopropyl-9-oxo-3-thia-1,10,11-triazatricyclo[6.4.0.02,6]dodeca-2(6),4,7,11-tetraen-10-yl)-N-(4-pyridyl)acetamide]
326 | CC(C)c1nn(CC(=O)N[C@@H]2CCCN(C[C@@H](C)O)C2)c(=O)c2cc3ccsc3n12 [Example 78, N-[(3R)-1-[(2R)-2-hydroxypropyl]piperidin-3-yl]-2-(8-isopropyl-5-oxothieno[3′,2′:4,5]pyrrolo [1,2-d][1,2,4]triazin-6(5H)-yl)acetamide]
322 | CCOC(=O)C(C)(C)N1CCCC(NC(=O)Cn2nc(C(C)C)n3c(cc4ccsc43)c2=O)C1 (stereo not shown) [Example 80, ethyl 2-methyl-2-[3-[[2-(8-isopropyl-5-oxothieno[3′,2′:4,5]pyrrolo[1,2-d][1,2,4]triazin-6(5H)-yl)acetyl]amino]piperidin-1-yl]propanoate]
148 | CC(C)c1nn(CC(=O)Nc2ncncc2F)c(=O)c2cc3ccsc3n12 [Example 70, N-(5-fluoropyrimidin-4-yl)-2-(12-isopropyl-9-oxo-3-thia-1,10,11-triazatricyclo[6.4.0.02,6]dodeca-2(6),4,7,11-tetraen-10-yl)acetamide]
78 | CC(C)c1nn(CC(=O)N[C@@H]2CCCN(CCC#N)C2)c(=O)c2cc3ccsc3n12 [Example 77, N-[(3R)-1-(2-cyanoethyl)piperidin-3-yl]-2-(8-isopropyl-5-oxothieno[3′,2′:4,5]pyrrolo[1,2-d][1,2,4]triazin-6(5H)-yl)acetamide]
